Experiments:
[1] = Liposome permeabilization (sulforhodamine B dye leakage) assay; type: biochemical
Method: For unilamellar liposome preparation, a total of 100 μL of 30 mM 1,2-dioleoyl-sn-glycero-3-phosphocholine (DOPC; Avanti Polar Lipids) and the following lipids dissolved in chloroform were mixed in a glass tube in the appropriate ratio: POPG (Avanti Polar Lipids), POPE (Avanti Polar Lipids), POPS (Avanti Polar Lipids), and purified S. aureus LTA (InvivoGen, catalog # tlrl-pslta). The solvent was evaporated under a stream of nitrogen gas and the glass vial was placed in a vacuum desiccator overnight. A total of 1 mL HEPES-Buffered Saline (HBS) composed of 5 mM HEPES (pH 7.6) and 150 mM NaCl, and 30 mM sulforhodamine B (SRB) was added to each vial. The lipid solution was vortexed for 10 min and lipids were hydrated by five freeze–thaw cycles with liquid N2. The lipid solution was diluted with HBS buffer to 3 mL and the solution was passed 29 times through a mini extruder (Avanti Polar Lipids) with a filter of […] pore diameter to form lipid vesicles of homogeneous size. The extruded solution was passed through Sephadex 50 resin to remove the free sulforhodamine B (liposomes eluted faster than the dye). The size of the liposomes was tested using dynamic light scattering (DLS, Malvern Zetasizer, Dr. Catherine J. Murphy lab, Department of Chemistry, UIUC) and analyzed using Zetasizer software. The DLS data quality was interpreted by the instrument through its embedded algorithm to confirm the data quality. The polydispersity index (PDI), which measures the size distributions was used to monitor the quality of the liposomes. The small PDI indices obtained from DLS readings indicate that the liposomes were monodisperse ([Farkas and Kramar, 2021]). The total lipid concentration was measured with NMR spectroscopy using a reported method ([Hein et al., 2016]). The vesicles were stored at 4°C and used within 1–2 days.
For the dye leakage assay, 100 μL SRB-loaded liposomes (80 μM lipid; 100–200 nm size) were placed in each well in a 96-well microplate. Fluorescence of SRB-loaded liposomes was monitored over time on a Synergy H4 Hybrid Multi-Mode Microplate Reader (BioTeK) using λEx at […]. To each well, a different concentration of peptides or 0.02% triton X-100 was added 5 min after adding liposomes. Liposomes supplied with water were treated as the negative control. The fluorescence emission was measured every 15 s for 2 h. Fluorescence counts were recorded as % leakage and plotted as a function of time. The concentration of epilancin 15X where the SRB leaked from the liposomes reached half of the triton X-100 leakage was recorded as C1/2, and C1/2 values were plotted against DOPC and supplemented lipid concentrations.

[2] = tested on: S. carnosus TM300; assay: Lipid protection assay (MIC with lipid-supplemented growth medium); type: cell-based, Staphylococcus carnosus; conditions: for Epilancin MIC: S. carnosus TM300
Method: MIC determination was performed in a 96-well microtiter plate as described previously ([Wu et al., 2019]). Sensitive bacterial culture was grown in the appropriate medium (BHI for S. carnosus; LB for B. subtilis) at 37°C overnight. The culture was diluted to 10^5 CFU/mL in medium in each well. Epilancin 15X or its analog was dissolved in water and serially diluted to obtain final concentrations of 20, 10, 5, 2.5, 1.25, 0.625, 0.3125, 0.156, 0.078, 0.039, 0.019, and 0.009 μM. OD600 readings were obtained after 18 h using a Synergy H4 Hybrid Multi-Mode Microplate Reader (BioTeK). Cell-free untreated medium, and untreated cell culture were used as negative controls. The MIC of nisin against B. subtilis BSF2470 was determined following the same methods.
The possibility of direct interaction between epilancin 15X and specific lipids was examined through lipid protection assays. […] In an agar diffusion assay, purified S. aureus LTA antagonized the bioactivity of epilancin 15X but not nisin A (Supplementary Figure S5A).

[3] = B. subtilis LTA (-) added, ~100 µM
[4] = S. aureus LTA (-) added, ~100 µM

Epilancin 15X
EC50 ([1]; DOPC liposomes supplemented with POPE, highest concentration tested 64 µM, read-out: C1/2 (concentration giving 50% of triton X-100 leakage)): > 64 µM
fluorescence emission from SRB dye leakage ([1]; DOPC liposomes with negatively charged lipids LTA, POPS, POPG): increased
SRB dye leakage from DOPC liposomes ([1]; DOPC only, 80 μM lipid, epilancin 15X up to 64 μM, fluorescence over 2 h): not detected
C1/2 values as a function of supplemented lipid concentration ([1]; negatively charged lipids S. aureus LTA, POPG, POPS): negative slope
SRB dye leakage from DOPC liposomes doped with POPE ([1]; neutral lipid POPE): not detected
liposome leakage as a function of supplemented lipid concentration ([1]; neutral lipids POPC and POPE): no change in liposome leakage
Increase in MIC compared to WT [2, 3]: 8 X
Increase in MIC compared to WT ([2]; Cardiolipin (-) added, 130 µM): 8 X
Increase in MIC compared to WT ([2]; DGDG added, 100 µM): did not display any protection affect
Increase in MIC compared to WT ([2]; POPC added, 130 µM): did not display any protection affect
Increase in MIC compared to WT ([2]; POPE added, 500 µM): did not display any protection affect
Increase in MIC compared to WT ([2]; POPG (-) added, 100 µM): 4 X
Increase in MIC compared to WT [2, 4]: > 16 X
Epilancin MIC [2, 3]: 2.5 µM
Epilancin MIC ([2]; Cardiolipin (-) added, 130 µM): 2.5 µM
Epilancin MIC ([2]; DGDG added, 100 µM): 0.31 µM
Epilancin MIC ([2]; POPC added, 130 µM): 0.31 µM
Epilancin MIC ([2]; POPE added, 500 µM): 0.31 µM
Epilancin MIC ([2]; POPG (-) added, final concentration 100 µM): 1.25 µM
Epilancin MIC [2, 4]: > 5 µM
increase of epilancin 15X MIC ([2]; growth medium supplemented with 2.5 μM LTA isolated from S. aureus): at least 8 fold
increase of epilancin 15X MIC ([2]; growth medium supplemented with POPG): at least 4 fold
increase of epilancin 15X MIC ([2]; growth medium supplemented with cardiolipin): at least 4 fold
